{"source": "patent US4400384A", "about": "“5-o-Cyanobenzyl-4,5,6,7-tetrahydrothieno [3,2-c] pyridine methanesulfonate and other novel salts thereof” (Sanofi, S.A., priority 1980, dated 1983)", "key": {"patients": {"tested_on": "patients", "assay": "Clinical study, second series: tolerance", "type": "in vivo, human", "conditions": "oral capsules, 700 mg per day, 7 days plus morning of 8th day, 11 patients", "procedure": "(§1) In a second series of tests, the MS salt was again administered orally in the form of capsules containing 175 mg of the active salt. Eleven patients were treated, each patient receiving 4 capsules per day containing a total of 700 mg of MS salt divided in two portions of 350 mg morning and evening, after meals, for 7 days, and on the 8th day in the morning only. Therefore, the total amount of active ingredient (MS salt) was 5250 mg to each subject."}, "Acute toxicity in rats": {"assay": "Acute toxicity in rats", "conditions": "rat, in vivo", "procedure": "(§2) The preferred methanesulfonate salt of the present invention was tested for acute and sub-acute toxicity and the results obtained on rats and mice by oral, intravenous and intraperitoneal administration are set forth in the tables below."}, "Diuretic activity": {"assay": "Diuretic activity", "conditions": "in vivo"}, "Hemostasis activity": {"assay": "Hemostasis activity", "conditions": "in vivo"}, "red globules": {"tested_on": "red globules", "assay": "Anti-sludge activity in vitro on red globules", "type": "cell-based"}, "[1]": {"tested_on": "musculotropic isolated intestine", "assay": "Anti-spasmodic activity on isolated intestine"}, "Acute toxicity in mice": {"assay": "Acute toxicity in mice", "conditions": "mouse, in vivo", "procedure": "as §2"}, "[2]": {"tested_on": "blood-platelet aggregation", "assay": "Inhibition of blood-platelet aggregation (general statement)", "type": "in vivo", "conditions": "result in words", "procedure": "(§3) The inhibitor action on blood-platelet aggregation of the salts of the present invention was determined by two different standard methods known to the art.\n(§4) The first method, involving the use of ADP (adenosine diphosphate), is that of Ferrand J. C., Gaich C., Dumas, A.--EVALUATION DE L' EFFET ANTI-AGREGANT DE LA TICLOPIDINE PAR UNE TECHNIQUE SUR SANG TOTAL. COMM. SOCIETE DE BIOLOGIE DE TOULOUSE (TOULOUSE Feb. 9, 1978), RESUME IN: REV MED TOULOUSE, 1978, 14, (SUPPL. 5) 680, referred to hereinafter as the ADP method.\nThe second method is that described in Ferrand J. C., Lale A.--NUMERATION ET AGREGATION PLAQUETTAIRE A L AIDE DE L AUTOCOUNTER. APPLICATION A L ETUDE DE LA TICLOPIDINE. COMM. SYMPOSIUM TECHNICON INDUSTRIE (PARIS, June 15, 1978); Ferrand J. C., Lale A.--EVALUATION EX-VIVO DE L AGREGATION PLAQUETTAIRE PAR UNE TECHNIQUE AUTOMATIQUE SUR SANG TOTAL COMM. SOCIETE FRANCAISE DE BIOLOGIE CLINIQUE (PARIS Sept. 28, 1979); and J. C. Ferrand, A. Lale, D. Aubert and G. Barthelemy--APPRECIATION QUANTITATIVE DE L' ACTIVITE ANTI-AGREGANTE DE LA TICLOPIDINE PAR VOIE AUTOMATIQUE. COMM. REUNION DE L' ASOCIATION FRANCAISE DE PHARMACOLOGISTES DIJON (May 2-3, 1980), and is referred to hereafter as the collagen method. […]"}, "rabbit": {"tested_on": "rabbit", "assay": "Cardiovascular action in anesthetized rabbit", "type": "in vivo", "conditions": "perfusions at high dosages"}, "rats": {"tested_on": "rats", "assay": "Sub-acute toxicity in rats, oral, 6 weeks", "type": "in vivo", "procedure": "These tests were carried out on four groups of 30 rats, 15 males and 15 females in each group; the rats all being type SPF adults. Administration was by the oral route, carried out 5 days per week for a period of 6 consecutive weeks."}, "[3]": {"tested_on": "blood-platelet aggregation", "assay": "Clinical study, second series: inhibition of blood-platelet aggregation", "type": "in vivo, human", "conditions": "oral capsules, 700 mg per day, 7 days plus morning of 8th day, 11 patients", "procedure": "as §1"}, "[4]": {"tested_on": "blood-platelet aggregation (ADP)", "assay": "Inhibitor action on blood-platelet aggregation, ADP method (ex vivo after gastric tube dosing)", "type": "in vivo, female rats of the Wistar type", "conditions": "100 mg/Kg base equivalent at 48, 24 and 2 h before blood drawing", "procedure": "as §3, §4\nGroups of 10 female rats of the Wistar type were each dosed with one of the base or one of the salts of the invention and with the corresponding maleate salt of Amselem U.S. Pat. No. 4,097,482, at periods of 48 hours, 24 hours and 2 hours prior to drawing blood for testing by the ADP and collagen techniques referred to above. The active medicaments were administered by means of a gastric tube in the form of a 5% aqueous solution of gum arabic. A dosage level of 100 mg/Kg was used for the base, and for the salts an amount was used sufficient to provide the equivalent amount of the base portion of the salt."}, "[5]": {"tested_on": "effects of oxotremorine or reserpine", "assay": "Modification of the effects of oxotremorine or reserpine", "type": "in vivo", "conditions": "alone or together with ethyl alcohol"}, "Vasodilator activity": {"assay": "Vasodilator activity", "type": "in vivo", "conditions": "result in words"}, "human patients": {"tested_on": "human patients", "assay": "Clinical study, first series: tolerance", "type": "in vivo", "conditions": "oral capsules, 350 to 1400 mg per day, 3 weeks, 12 patients", "procedure": "The MS salt has been administered to human patients orally in the form of capsules each containing 175 mg of the active salt. Twelve patients were treated in four groups; one group receiving 2 capsules per day (350 mg); a second group receiving 4 capsules per day (700 mg); a third group receiving 6 capsules per day (1050 mg); and the fourth group receiving 8 capsules per day (1400 mg). This regimen was continued for 3 weeks."}, "central nervous system": {"tested_on": "central nervous system", "assay": "Central nervous system activity per se, rats", "type": "in vivo"}, "Anti-thrombotic activity": {"assay": "Anti-thrombotic activity", "conditions": "in vivo"}, "dogs": {"tested_on": "dogs", "assay": "Toxicity by oral administration in dogs", "type": "in vivo", "conditions": "33 to 100 mg/Kg/day, 24 days", "procedure": "Further toxicity investigations were carried out on the MS salt by oral administration in dogs. Two groups of 10 adult dogs were selected; one group being used as the control and the second group having the MS salt administered orally in increasing dosages as follows: […]"}, "[6]": {"conditions": "oral, 50, 150, 300 mg/Kg, 5 days per week, 6 weeks"}}, "note": "“Also recorded” adds a separate entry of the source."}
{"compound": "CS(=O)(=O)O.N#Cc1ccccc1CN1CCc2sccc2C1", "note": "[Methanesulfonate, 5-o-Cyanobenzyl-4,5,6,7-tetrahydrothieno [3,2-c] pyridine methanesulfonate]", "values": [{"measurement": "clinical tolerance", "setting": "patients", "value": "Clinical tolerance was excellent"}, {"measurement": "LD50 at 8 h", "setting": "Acute toxicity in rats; intravenous, read-out: LD50, intravenous, rats", "value": 80.2, "unit": "mg/kg"}, {"measurement": "LD50 at 8 h", "setting": "Acute toxicity in rats; ip, intraperitoneal, read-out: LD50, intraperitoneal, rats", "value": 719, "unit": "mg/kg"}, {"measurement": "diuretic activity", "setting": "Diuretic activity", "value": "free of diuretic activity"}, {"measurement": "hemostasis activity", "setting": "Hemostasis activity", "value": "no hemostasis activity"}, {"measurement": "anti-sludge activity in vitro", "setting": "red globules", "value": "anti-sludge activity in vitro on red globules"}, {"measurement": "anti-spasmodic activity", "setting": "[1]", "value": "exhibit anti-spasmodic activity"}, {"measurement": "LD50 at 8 h", "setting": "Acute toxicity in mice; intravenous, read-out: LD50, intravenous, mice", "value": 134, "unit": "mg/kg"}, {"measurement": "LD50 at 8 h", "setting": "Acute toxicity in mice; ip, intraperitoneal, read-out: LD50, intraperitoneal, mice", "value": 898, "unit": "mg/kg"}, {"measurement": "LD50 at 8 h", "setting": "Acute toxicity in mice; oral, read-out: LD50, oral, mice", "value": 883, "unit": "mg/kg"}, {"measurement": "inhibitor action against blood-platelet aggregation", "setting": "[2]", "value": "excellent inhibitory action against blood-platelet aggregation"}, {"measurement": "cardiovascular depressive action", "setting": "rabbit", "value": "cardiovascular depressive action"}, {"measurement": "toxicity and tolerance (overall)", "setting": "rats; conclusion from acute and sub-acute tests", "value": "low toxicity and good tolerance"}, {"measurement": "microscopic examination of principal organs", "setting": "rats; end of test period or 15 days thereafter", "value": "normal in appearance with exception of some signs of gastric intolerance"}, {"measurement": "histological examination of the organs", "setting": "rats; oral, 6 weeks", "value": "good tolerance"}, {"measurement": "behavior of the dosed animals", "setting": "rats; [6]", "value": "No significant modification of the behavior"}, {"measurement": "death attributable to administration", "setting": "rats; [6]", "value": "nor was there any death attributable to the administration of the MS salt"}, {"measurement": "inhibitory activity on blood-platelet aggregation in patients", "setting": "[3]", "value": "very effective inhibitory activity on blood-platelet aggregation"}, {"measurement": "BLOOD PLATELET AGGREGATION, ADP, 1 mn 30 s", "setting": "[4]; 1 mn 30 s, controls 0.29", "value": 0.73}, {"measurement": "BLOOD PLATELET AGGREGATION, ADP, 3 mn", "setting": "[4]; 3 mn, controls 0.40", "value": 0.88}, {"measurement": "modification of the effects of oxotremorine", "setting": "[5]", "value": "does not modify the effects of oxotremorine"}, {"measurement": "modification of the effects of reserpine", "setting": "[5]", "value": "does not modify the effects of oxotremorine or reserpine"}, {"measurement": "peripheral and cerebral vasodilator activity", "setting": "Vasodilator activity", "value": "lacks the peripheral and cerebral vasodilator activity"}, {"measurement": "vasodilator action", "setting": "Vasodilator activity; listed as MS salt, methanesulfonate", "value": "without causing vasodilator action; also recorded: free of anti-inflammatory or vasodilator activity as is the MS salt"}, {"measurement": "clinical tolerance", "setting": "human patients", "value": "Clinical tolerance was excellent"}, {"measurement": "side effects or incidents", "setting": "human patients", "value": "no side effects or incidents being noted"}, {"measurement": "influence on the central nervous system per se, rats", "setting": "central nervous system", "value": "no influence on the central nervous system"}, {"measurement": "anti-thrombotic activity", "setting": "Anti-thrombotic activity", "value": "exhibits anti-thrombotic activity"}, {"measurement": "deaths attributable to the salt", "setting": "dogs", "value": "No deaths occurred which were attributable to the MS salt"}, {"measurement": "hematological, blood biochemical or urinary functions", "setting": "dogs", "value": "No significant variations"}, {"measurement": "vomiting", "setting": "dogs", "value": "some of the dogs experienced some vomiting"}]}
